# Assay results taken from a melting point compilation (Tetko et al.; mined from patent text by program, amines drawn as free bases though some values may be those of a salt).
row,melting point,SMILES
1,165 to 168 °C,COC(=O)Nc1nc2ccc(Sc3ccccc3)cn2c1Br
2,221 to 223 °C,N#Cc1ccc(-c2cc(N(Cc3ccc(O)cc3)n3cnnc3)ccc2C#N)cc1
3,130 to 133 °C,Nc1cc(Oc2ccc(-c3ccc(Oc4cc(N)cc(C(F)(F)F)c4)cc3)cc2)cc(C(F)(F)F)c1
4,46 to 48 °C,Cc1ccc(CC(CNC(=O)C(C)c2ccc(NS(C)(=O)=O)c(F)c2)COC(=O)C(C)(C)C)cc1C (stereo not drawn)
5,155 °C,C/C(=C\c1cccc2ccccc12)C(=O)O
6,196 °C,O=S(=O)(NC1CC1)c1cccc(-c2cc(-c3nc(-c4ccc(C(F)(F)F)cc4)cc(C(F)(F)F)n3)ccn2)c1
7,282 to 286 °C,Cc1ccc(OC2=NS(=O)(=O)N=C(Oc3ccc(C)cc3)N2C)cc1
8,119 to 130 °C,CNC(=O)CN1CCc2cc(Nc3ncc(Cl)c(Nc4c(F)cccc4C(=O)NC)n3)c(OC)cc2CC1
9,184 to 186 °C,CCC(C)(CC)NC(=NC#N)Nc1cccnc1
10,192 °C,CC(C)(C)CC1NC(C(=O)NCC2CCC(O)CC2)C(c2cccc(Cl)c2F)C12C(=O)Nc1cc(Cl)ccc12 (stereo not drawn)
11,105 to 107 °C,CN(CCc1ccccc1)C1CCN(C(=O)Nc2ccccc2)CC1
12,95 °C,CC(=O)OC1CSC(Oc2cncc(-c3c(C)n[nH]c3C)c2)C(OC(C)=O)C1OC(C)=O (stereo not drawn)
13,190 to 192 °C,CN(C)CC(=O)N1CCN(Cc2ccc3c(c2)Cc2c(-c4ccsc4)n[nH]c2-3)CC1
14,> 300 °C,O=c1[nH]c2ccc(F)cc2n2ccnc12
15,135 to 136 °C,CC(C)(C)c1cc(C(c2ccc(F)cc2)N2CCCCC2)c(O)c(C(C)(C)C)c1 (stereo not drawn)
16,96 to 98 °C,CCOP(=O)(OCC)C(O)=Cc1nn(-c2ccc(F)cc2)cc1-c1ccc(Cl)cc1
17,173 to 174 °C,CCCc1c2nc(C(=O)OC)cc(N(C)S(=O)(=O)c3ccc(C)cc3)c2cc2c(=O)cc(C(=O)OCC)oc12
18,99 °C,O=C1CCC2CC(c3ccccc3)c3cccc1c32 (stereo not drawn)
19,76 to 77 °C,C=CCNC(=O)C1CCc2ccccc2O1 (stereo not drawn)
20,228 to 230 °C,COc1cc(OCCOCc2ccccc2)cc2nc(-c3ccncc3)[nH]c(=O)c12
21,122 °C,N=C(N)NC(=O)C[C@H]1c2cc(C(F)(F)F)ccc2C(=O)N1CC(F)(F)F
22,86 to 88 °C,O=C1CCc2c1cccc2C(=O)c1ccccc1
23,157 to 160 °C,N#Cc1ccc(N(Cc2ccccc2)n2cnnc2)cc1-c1ccc(OS(N)(=O)=O)cc1

row,melting point,SMILES
1,251 to 254 °C,O=C(O)c1ccc2c(c1)Sc1ccccc1C=C2
2,192 to 193 °C,NC(=O)c1c(Cl)c(-c2ccccc2)n2c1CN(S(=O)(=O)c1ccc(Cl)c(Cl)c1)CC2
3,291 to 293 °C,Cc1ccc(N2C(=O)NC(=O)C23CCN(Cc2ccccc2)CC3)cc1
4,190 to 192 °C,O=S(=O)(CC(F)(F)F)c1nc2cc(Cl)c(Cl)cc2[nH]1
5,77 to 79 °C,COc1ccc(C(=O)c2ccccc2F)c(Cl)c1
6,140 to 147 °C,COC1(c2ccc(N(C)C)cc2)OC(=O)c2cc(N(C)C)ccc21 (stereo not drawn)
7,129 to 131 °C,O=C(Cc1cccs1)NC1CN(C(C(=O)O)c2ccc(OC(=O)c3ccccc3)cc2)C1=O (stereo not drawn)
8,221 to 223 °C,COc1ccc(C2Cc3c(cccc3C(F)(F)F)NC(=O)C2=O)cc1 (stereo not drawn)
9,102 to 103 °C,COCOCc1nc(-c2ccccc2)oc1CCc1ccc(O)cc1
10,133 to 134 °C,CCOc1nn(Cc2ccc(OCc3nc(-c4ccccc4)oc3C)cn2)cc1CCC(=O)O
11,80 to 82 °C,CCN(CC)S(=O)(=O)N1CCNC1=O
12,167 to 172 °C,Cc1cc(-c2nc(-c3cccs3)c[nH]2)ccc1O
13,82 to 84 °C,CCOC(=O)CCC(C#N)(c1ccccc1)C(C)C (stereo not drawn)
14,65 to 66 °C,CC1CCC(Oc2cc(F)cc(C(=O)Nc3ccc(OCCN4CCOCC4)c4ccccc34)c2)C1 (stereo not drawn)
15,165 to 166 °C,CN1C(NCCCO)=NC(c2ccccc2)c2cc(Cl)ccc21 (stereo not drawn)
16,79 to 80 °C,O=C(OCc1snc(Cl)c1Cl)c1ccccc1
17,164 to 165 °C,CC(=O)NCCn1cccc1C1=CC(=O)c2ncccc2C1=O
18,205 to 206 °C,Nc1ccc(S(=O)(=O)N2CCCC(c3ccc(Cl)c(C(F)(F)F)c3)=N2)cc1
19,145 to 147 °C,COC1CCCC(C(=O)Nc2ccc(-n3nc(C(F)(F)F)cc3C(F)(F)F)cc2)C1 (stereo not drawn)
20,257 to 260 °C,O=C1C(=O)N(Cc2ccc([N+](=O)[O-])cc2)CCN1Cc1ccc([N+](=O)[O-])cc1
21,221 to 223 °C,O=C(NCCCl)Sc1ncnc2nc[nH]c12
22,231 to 233 °C,Nc1nc(NCCSSCCNc2n[nH]c(N)n2)n[nH]1
23,207 to 209 °C,N#Cc1ccc(C(=O)N2CCC3(CC2)C(=O)NC(=O)N3Cc2ccccc2)cc1

row,melting point,SMILES
1,99 to 104 °C,CCCCc1nc(C#N)c(C#N)n1Cc1ccc(N)cc1
2,140 to 142 °C,CC(C)(C)OC(=O)NCCCC(COC(=O)Oc1ccc([N+](=O)[O-])cc1)NC(=O)OCC1c2ccccc2-c2ccccc21 (stereo not drawn)
3,154 to 156 °C,O=C(NCc1ccccc1)c1ccnc(N2CCN(Cc3ccncc3)C2=O)c1
4,223 to 225 °C,COc1ccccc1Oc1cccc2c1C(=O)N(C1CCC(=O)NC1=O)C2=O (stereo not drawn)
5,180 to 181 °C,O=C(CC1CCCCC1)Nc1ccc2oc3c(c2c1)CCCCCC3
6,156 to 157 °C,COc1ccc(-c2coc3ccc(-c4nnc(SC)o4)cc23)cc1
7,122 to 124 °C,Cn1ccc(CON2C(=O)c3ccccc3C2=O)n1
8,250 to 256 °C,CC(C)OC(=O)c1nc(-c2ccc(=O)[nH]c2)c(-c2ccccc2)nc1N
9,102 °C,Clc1ncc(Cl)n2ccnc12
10,229 to 230 °C,O=C1CN(C(=O)c2ccco2)c2ccccc2N1
11,103 to 104 °C,COc1ccc2c(c1)C(=NO)CCCO2
12,55 to 57 °C,CN(C)CC(O)C(c1ccccc1)c1ccc(F)cc1 (stereo not drawn)
13,204 to 205 °C,CCCCc1ncc(/C=C(\Cc2cccs2)C(=O)O)n1Cc1ccc(C(=O)O)c(C(=O)O)c1
14,129 to 131 °C,COc1ccc2c(Cl)cc(-c3ccc(C)cc3)nc2c1
15,96 to 97 °C,COCN1C(C)=C(C(=O)OCOC(=O)C(C)(C)C)C(c2ccccc2C(F)(F)F)C(C(=O)OCOC(=O)C(C)(C)C)=C1C
16,220 to 222 °C,COc1cc2nc(N3CCN(C(=O)CC(C)O)CC3)nc(N)c2cc1OC (stereo not drawn)
17,218 to 220 °C,COc1cc(C=O)ccc1Oc1nc(Nc2cccc(C(=O)O)c2)nc(Oc2ccccc2)n1
18,128 to 133 °C,Oc1ccc(P(c2ccc(O)cc2)c2ccc(O)cc2)cc1
19,180 °C,CN1CCN(c2ccc3nc(-c4ccc(F)cc4)c(I)n3n2)CC1
20,129 to 130 °C,c1csc(OCCOc2ccc3ccccc3c2)c1
21,88 to 90 °C,CCC(C#N)(C(=O)N1CCOCC1)c1ccccc1 (stereo not drawn)
22,187 to 188 °C,CCCc1cn2c(=O)c(C(=O)OCC)cnc2c2cc(OC)ccc12
23,136 to 138 °C,COc1ccc(C2CCN(c3c(C)c(C)c4c(c3C)C(N3CCc5ccccc5CC3)C(C)(C)O4)CC2)cc1OC (stereo not drawn)

row,melting point,SMILES
1,85 to 87 °C,CC(O)Cn1ccc2ccc(F)c(Cl)c21 (racemic)
2,167 to 169 °C,Cc1noc2cc3c(cc12)C1(CO3)C(=O)N(Cc2ncccc2F)c2ccccc21 (stereo not drawn)
3,280 to 282 °C,Cc1nc(-n2ccc(O)cc2=O)sc1C(=O)NCc1ccc(F)cc1
4,37 to 43 °C,CCOC(=O)c1c(C(F)F)nc(C(F)(F)F)c(C(=O)OCC)c1Br
5,173 to 175 °C,CCc1nnc2c(Cl)nc3cc(OC)ccc3n12
6,268 to 270 °C,COc1ccc2c(c1)C(=O)N(c1ccc3c(c1)n(C)c(=O)n3C)C2
7,161 to 162 °C,COc1ccccc1N1CCN(CCCNC(=O)c2csc3c(=O)cc(-c4ccccc4)oc23)CC1
8,132 °C,O=C(Nc1cccc(Oc2ccccn2)c1)c1ccn2c1CSC2c1cccnc1 (stereo not drawn)
9,98 to 101 °C,CC(CS)C(=O)N1c2ccccc2CCC1C(=O)O (stereo not drawn)
10,112 °C,CCCCCCCCCC(C)(C)c1cc(C(=O)O)ccc1OC
11,114 to 115 °C,COc1ccc(-c2cc3c(OC)cc(OC)cc3nc2OCC(=O)OCc2ccccc2)cc1
12,130 to 133 °C,CC(C)c1nn(-c2ncccn2)c(-c2ccc(F)cc2)c1Br
13,210 to 213 °C,O=C(O)CC(CO)C(=O)c1ccc(Cl)c([N+](=O)[O-])c1 (stereo not drawn)
14,133 to 137 °C,CNCCOc1ccc(C2=C(c3ccccc3)CCCc3cc(OC4CCCCO4)ccc32)cc1 (stereo not drawn)
15,171 °C,COc1ccc2c(c1OC)C1=NCCN1C1C(c3ccccc3)CCN21 (stereo not drawn)
16,170 to 171 °C,COc1ccc(Cc2nc(C#N)c[nH]2)cc1
17,63 to 65 °C,CCCc1c(OCCCCCC(=O)NCCSc2ccncc2)ccc(C(C)=O)c1O
18,83 to 84 °C,CCOC(=O)c1ccc(/C=C(\C)c2cc3c(s2)C(C)(C)CCC3(C)C)nc1
19,240 to 241 °C,CC(=O)OCCOCn1cnc2c(=O)[nH]c(N)nc21
20,245 °C,Cc1ccc(S(=O)(=O)n2cc(C=O)c3ccc(C(=O)Nc4c(Cl)cncc4Cl)cc32)cc1
21,192 to 194 °C,COC(=O)C(=CNc1sccc1C(=O)O)SC
22,197 to 199 °C,O=C(O)/C=C/c1cnoc1-c1ccccc1
23,160 to 161 °C,NC(=O)CNC(=O)c1cccc(-c2cccc3sc(Cc4ccc(F)c(F)c4)cc23)c1

row,SMILES,melting point
1,CN1C(=O)CN=C(c2ccccc2F)c2cc(NC(=O)NCCOC(C)(C)C)ccc21,177 °C
2,C[C@@H]1C(=O)C[C@H]2C[C@@H]1OO[C@@]2(C)/C=C\c1ccc(C(C)(C)C)cc1,101 °C
3,Cc1cc(C2=NOC(c3cc(Cl)cc(Cl)c3)(C(F)(F)F)C2O)ccc1C(=O)O (stereo not drawn),215 to 217 °C
4,CCOC(=O)c1ncn2c1CN=C(c1ccccc1F)c1cc(C#C[Si](C)(C)C)ccc1-2,196 to 198 °C
5,O=c1oc2cc(O)c(O)cc2c(O)c1C1c2ccccc2Oc2c1c(=O)oc1cc(O)cc(O)c21 (stereo not drawn),> 300 °C
6,CCCC(c1ccc(C)cc1)n1c(C(=O)OC)cnc1S (stereo not drawn),209 to 211 °C
